Assay results published in PMC9147192, “Small Molecule Arranged Thermal Proximity Coaggregation (smarTPCA)—A Novel Approach to Characterize Protein–Protein Interactions in Living Cells by Similar Isothermal Dose–Responses” (International Journal of Molecular Sciences, 2022).

Molecular target: T1, GANAB (Homo sapiens, UniProt Q14697)
T1 construct: endogenous in cells; host or cells: HL-60 (ATCC CCL-240)
T1 sequence (Q14697 29-944): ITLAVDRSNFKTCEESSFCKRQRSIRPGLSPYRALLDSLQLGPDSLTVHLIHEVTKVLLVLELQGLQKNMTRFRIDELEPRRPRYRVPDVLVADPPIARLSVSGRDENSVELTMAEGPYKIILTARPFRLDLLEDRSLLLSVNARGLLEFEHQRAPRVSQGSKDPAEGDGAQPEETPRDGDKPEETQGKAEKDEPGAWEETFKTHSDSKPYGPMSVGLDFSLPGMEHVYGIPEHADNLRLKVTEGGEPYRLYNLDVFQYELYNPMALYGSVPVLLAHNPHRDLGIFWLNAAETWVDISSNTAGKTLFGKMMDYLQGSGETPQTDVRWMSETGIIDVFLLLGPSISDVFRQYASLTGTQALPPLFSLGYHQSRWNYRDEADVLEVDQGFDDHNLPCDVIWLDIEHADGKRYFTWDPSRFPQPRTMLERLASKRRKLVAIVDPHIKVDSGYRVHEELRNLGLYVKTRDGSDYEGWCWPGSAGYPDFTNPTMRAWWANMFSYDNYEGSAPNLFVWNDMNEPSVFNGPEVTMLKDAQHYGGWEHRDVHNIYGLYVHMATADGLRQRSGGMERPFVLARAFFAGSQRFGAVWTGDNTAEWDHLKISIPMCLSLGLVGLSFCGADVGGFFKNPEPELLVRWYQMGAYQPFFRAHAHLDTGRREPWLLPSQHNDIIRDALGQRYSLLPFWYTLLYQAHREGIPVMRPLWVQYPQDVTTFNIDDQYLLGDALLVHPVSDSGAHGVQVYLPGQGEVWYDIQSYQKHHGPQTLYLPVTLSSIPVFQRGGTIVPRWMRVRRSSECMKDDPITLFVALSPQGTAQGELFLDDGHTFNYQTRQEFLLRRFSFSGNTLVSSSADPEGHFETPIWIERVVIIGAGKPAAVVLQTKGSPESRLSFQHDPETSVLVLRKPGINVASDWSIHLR
Test: TPP-CCR in living HL-60 cells
Type: cell-based

Compound: Cc1cnc(Nc2ccc(F)cc2Cl)nc1-c1c[nH]c(C(=O)N[C@H](CO)c2cccc(Cl)c2)c1 [ERK 11e]
- Hill slope (TPP-CCR, living cells, GANAB): 1.81
- Hill slope (GANAB) (living HL-60 cells, […] °C, TMT-MS): 1.81
- EC50 (living HL-60 cells, […] °C, TMT-MS, read-out: pEC50 (GANAB) (converted)): 5.25 µM
